{"source": "paper PMC6283615", "about": "“Anilinoquinoline based inhibitors of trypanosomatid proliferation” (PLoS Neglected Tropical Diseases, 2018)", "key": {"[1]": {"system": "T. cruzi amastigote (Tulahuen strain expressing β-galactosidase)", "assay": "Intracellular T. cruzi assay in 3T3 cells (beta-galactosidase, 96 h)", "type": "cell-based, Trypanosoma cruzi", "settings": "for EC50: Trypanosoma cruzi, TULAHUEN, read-out: T. cruzi amastigote EC50", "method_in_brief": "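3T3 cells in phenol-red-free DMEM with 2% FBS were infected with Tulahuen β-galactosidase trypomastigotes, 5×10^4 per well, and exposed to compounds from 50 μM in 1:2 serial dilutions, in triplicate. After 96 h at 37°C, 5% CO2, 500 μM CPRG in PBS with 0.5% NP40 was added for 4 h; absorbance was read at 590–595 nm.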"}, "HepG2 cells": {"system": "HepG2 cells", "assay": "Drug toxicity to HepG2 cells (MTT, 48 h)", "type": "cell-based, human", "settings": "tested concentration ranges based on compound solubility", "method_in_brief": "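HepG2 cells plated overnight, then exposed 48 h to twelve 1.6-fold dilutions (57–10,000 ng/mL) in duplicate at 37° C, 5% CO2. MTT added for 1 h at room temperature; formazan dissolved in acidified isopropanol, absorbance read.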"}, "[2]": {"assay": "Human liver microsome intrinsic clearance", "type": "in vitro ADME", "settings": "for microsomal CLint: liver microsomes"}, "LogD7.4": {"assay": "LogD7.4", "type": "physicochemical", "settings": "pH 7.4"}, "[3]": {"assay": "Rat hepatocyte intrinsic clearance", "type": "in vitro ADME", "settings": "for hepatocyte CLint: hepatocytes"}, "T. congolense IL3000": {"system": "T. congolense IL3000", "assay": "In vitro drug sensitivity assay for T. congolense (72 h)", "type": "cell-based", "settings": "Trypanosoma congolense, IL3000 strain", "method": "In vitro drug sensitivity assay for T. congolense (72 h): Compounds were tested in vitro for efficacy against the IL3000 T. congolense (drug sensitive) strain which was originally derived from the Trans Mara I strain, isolated from a bovine in 1966 in Kenya. […] Compounds were assayed in at least three separate, independent experiments and an 11-point dilution curve was used to determine the EC50 values. Bloodstream form trypanosomes were supported in HMI-9 medium containing 20% bovine serum and were incubated with test compounds for 69 h at 34°C in a humidified atmosphere containing 5% CO2. Thereafter, 10 μL of Resazurin dye (12.5 mg in 100 mL of phosphate-buffered saline, Sigma-Aldrich, Buchs, Switzerland) was added for an additional 3 h. Plates were read using a fluorescence plate reader (Spectramax, Gemini XS, Bucher Biotec, Basel, Switzerland) using an excitation wavelength of 536 nm and an emission wavelength of 588 nm."}, "NIH/3T3 cells": {"system": "NIH/3T3 cells", "assay": "Drug toxicity to 3T3 cells (Alamar Blue, 96 h)", "type": "cell-based", "method": "In a 96-well plate, 5×10^4 NIH/3T3 (ATCC CRL-1658) cells (purchased from ATCC) in DMEM without phenol red supplemented with 2% FBS were added to each well. Cells were incubated for 2 h to allow for attachment. Compounds were added in triplicates at 200 μM and in serial dilutions 1:2 and incubated at 37°C, 5% CO2 for 96 h. […] Following incubation, 10 μL of Alamar Blue (ThermoFisher) were added to each well and cells incubated at 37°C, 5% CO2 for 4 h. Absorbance was read at 590–595 nm."}, "Aqueous solubility": {"assay": "Aqueous solubility", "type": "physicochemical"}, "L. major amastigote": {"system": "L. major amastigote", "assay": "L. major intracellular amastigote luciferase assay in RAW 264.7 macrophages", "type": "cell-based, Leishmania major", "settings": "Leishmania major, RAW264.7; intracellular amastigotes in RAW 264.7 macrophages, 96 h", "method_in_brief": "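Murine RAW 264.7 macrophages were infected overnight with luciferase-expressing L. major metacyclic promastigotes (MOI 1:10). Non-internalized parasites were washed off before 96 h compound exposure (0.5–10,000 ng/mL) at 37°C, 5% CO2.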"}, "[4]": {"system": "T. vivax STIB 719 / ILRAD 560", "assay": "Ex vivo drug sensitivity assay for T. vivax (48 h)", "type": "cell-based", "settings": "Trypanosoma vivax, STIB719, 48 h", "method": "Ex vivo drug sensitivity assay for T. vivax (48 h): Compounds were tested ex vivo against the STIB 719 / ILRAD 560 T. vivax (drug sensitive) strain which originated from the Y486 strain, isolated from a naturally infected bovine in 1976 in Zaria, Nigeria. Compounds were assayed in at least three separate, independent experiments and an 11-point dilution curve was used to determine the EC50 values. Bloodstream form trypanosomes were harvested from a highly parasitaemic mouse (via cardiac puncture) and were incubated with test compounds for 45 h at 37°C in a humidified atmosphere containing 5% CO2, supported in HMI-9 medium containing 20% bovine serum. Thereafter, Resazurin dye was added to monitor trypanosome viability as described in the preceding section."}, "[5]": {"assay": "Human plasma protein binding", "type": "in vitro ADME", "settings": "for fraction unbound: read-out: Human PPB (converted)"}, "[6]": {"system": "T. b. brucei (strain 427)", "assay": "T. b. brucei proliferation assay (PrestoBlue, 48 h)", "type": "cell-based, Trypanosoma brucei brucei", "settings": "Trypanosoma brucei", "method_in_brief": "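Viability read by PrestoBlue fluorescence (530/590 nm) after 4 h with reagent, following 48 h compound exposure at 37°C, 5% CO2. Parasites (strain 427, 2.5×10^3 per well, HMI-9 medium) received triplicate 1:2 serial dilutions starting at 50 μM.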"}, "[7]": {"set-up": "method as in PMID 29301082", "settings": "lapatinib, Fig 1; cited from earlier work"}, "P. fal. D6": {"system": "P. fal. D6", "set-up": "method as in PMID 26087257, PMID 29301082", "settings": "previously reported; cited from earlier work"}}, "note": "Where two headings read alike, the source gives them in different places.", "data": [{"compound": "COc1ccc(Nc2ccnc3cc(-c4cnc(N5CCN(C)CC5)nc4)ccc23)cc1Cl", "note": "[Compound 23]", "values": [{"measurement": "EC50", "setting": "[1]; NIH3T3, 96 h", "value": 620, "unit": "nM"}, {"measurement": "HepG2 TC50", "setting": "HepG2 cells", "value": "> 3000", "unit": "nM"}, {"measurement": "Human Liver Microsome CLint", "setting": "[2]", "value": 170, "unit": "µL/min/mg"}, {"measurement": "LogD7.4", "setting": "LogD7.4", "value": 4.3}, {"measurement": "hepatocyte CLint", "setting": "[3]", "value": 45, "unit": "µL/min/1e6 cells"}, {"measurement": "EC50", "setting": "T. congolense IL3000", "value": 140, "unit": "nM"}, {"measurement": "3T3 TC50", "setting": "NIH/3T3 cells", "value": 4900, "unit": "nM"}, {"measurement": "solubility", "setting": "Aqueous solubility", "value": "< 1", "unit": "µM"}, {"measurement": "EC50", "setting": "L. major amastigote", "value": 2000, "unit": "nM"}, {"measurement": "EC50", "setting": "[4]", "value": 40, "unit": "nM"}, {"measurement": "Human PPB", "setting": "[5]", "value": 98, "unit": "%"}]}, {"compound": "Fc1cccc(COc2ccc(Nc3ccnc4cc(-c5cn[nH]c5)ccc34)cc2Cl)c1", "note": "[Compound 16]", "values": [{"measurement": "EC50", "setting": "[1]; NIH3T3, 96 h", "value": 920, "unit": "nM"}, {"measurement": "SI (T. cruzi)", "setting": "[1]; selectivity index calculated relative to 3T3 cells", "value": 2.5}, {"measurement": "microsomal CLint", "setting": "[2]", "value": "< 3", "unit": "µL/min/mg"}, {"measurement": "logD", "setting": "LogD7.4", "value": 4.6}, {"measurement": "hepatocyte CLint", "setting": "[3]", "value": 17, "unit": "µL/min/1e6 cells"}, {"measurement": "EC50", "setting": "T. congolense IL3000", "value": 470, "unit": "nM"}, {"measurement": "solubility", "setting": "Aqueous solubility", "value": 12, "unit": "µM"}, {"measurement": "EC50", "setting": "[6]", "value": 110, "unit": "nM"}, {"measurement": "EC50", "setting": "L. major amastigote", "value": 830, "unit": "nM"}, {"measurement": "EC50", "setting": "[4]", "value": 150, "unit": "nM"}, {"measurement": "fraction unbound", "setting": "[5]", "value": "< 0.01"}]}, {"compound": "CS(=O)(=O)CCNCc1ccc(-c2ccc3ncnc(Nc4ccc(OCc5cccc(F)c5)c(Cl)c4)c3c2)o1", "note": "[Lapatinib, lapatinib, reference compound]", "values": [{"measurement": "EC50", "setting": "[1]; NIH3T3, intracellular in 3T3 cells, 96 h", "value": 13000, "unit": "nM"}, {"measurement": "solubility", "setting": "[7]", "value": 12, "unit": "µM"}, {"measurement": "EC50", "setting": "P. fal. D6", "value": 470, "unit": "nM"}, {"measurement": "EC50", "setting": "L. major amastigote", "value": 11000, "unit": "nM"}]}, {"compound": "COc1ccc(Nc2ccnc3cc(-c4ccc(S(=O)(=O)N5CCN(C)CC5)cc4)ccc23)cc1Cl", "note": "[Compound 6]", "values": [{"measurement": "EC50", "setting": "[1]; NIH3T3, 96 h", "value": 3800, "unit": "nM"}, {"measurement": "microsomal CLint", "setting": "[2]", "value": 270, "unit": "µL/min/mg"}, {"measurement": "logD", "setting": "LogD7.4", "value": "< 1"}, {"measurement": "hepatocyte CLint", "setting": "[3]", "value": 44, "unit": "µL/min/1e6 cells"}, {"measurement": "EC50", "setting": "T. congolense IL3000", "value": 860, "unit": "nM"}, {"measurement": "solubility", "setting": "Aqueous solubility", "value": 100, "unit": "µM"}, {"measurement": "EC50", "setting": "[6]", "value": 220, "unit": "nM"}, {"measurement": "EC50", "setting": "L. major amastigote", "value": 1400, "unit": "nM"}, {"measurement": "EC50", "setting": "[4]", "value": 160, "unit": "nM"}, {"measurement": "Human PPB", "setting": "[5]", "value": 99, "unit": "%"}]}, {"compound": "CN1CCN(S(=O)(=O)c2ccc(-c3ccc4c(Nc5ccc(OCc6cccc(F)c6)c(Cl)c5)ccnc4c3)cc2)CC1", "note": "[Compound 1]", "values": [{"measurement": "EC50", "setting": "[1]; NIH3T3, 96 h", "value": 730, "unit": "nM"}, {"measurement": "microsomal CLint", "setting": "[2]", "value": 140, "unit": "µL/min/mg"}, {"measurement": "Rat Hepatocyte CLint", "setting": "[3]", "value": 20, "unit": "μL/min/10^6 cells"}, {"measurement": "EC50", "setting": "T. congolense IL3000", "value": 140, "unit": "nM"}, {"measurement": "solubility", "setting": "Aqueous solubility", "value": 0.3, "unit": "µM"}, {"measurement": "EC50", "setting": "P. fal. D6", "value": 19, "unit": "nM"}, {"measurement": "EC50", "setting": "[6]", "value": 79, "unit": "nM"}, {"measurement": "EC50", "setting": "L. major amastigote", "value": 1600, "unit": "nM"}, {"measurement": "EC50", "setting": "[4]", "value": 40, "unit": "nM"}, {"measurement": "fraction unbound", "setting": "[5]", "value": "< 0.01"}]}]}
